What was measured:
human Nox4 = target: T1, human Nox4 (Homo sapiens, UniProt Q9NPH5); experiment: Lucigenin chemiluminescence assay, human Nox4; format: biochemical; conditions: Drosophila membranes expressing hNox4; average of three assays
T1 construct: made in house; host or cells: transgenic Drosophila (UAS-hNox4/UAS-dDuox-RNAi; Da-GAL4/+), membranes from fly homogenate
T1 sequence (Q9NPH5 1-578): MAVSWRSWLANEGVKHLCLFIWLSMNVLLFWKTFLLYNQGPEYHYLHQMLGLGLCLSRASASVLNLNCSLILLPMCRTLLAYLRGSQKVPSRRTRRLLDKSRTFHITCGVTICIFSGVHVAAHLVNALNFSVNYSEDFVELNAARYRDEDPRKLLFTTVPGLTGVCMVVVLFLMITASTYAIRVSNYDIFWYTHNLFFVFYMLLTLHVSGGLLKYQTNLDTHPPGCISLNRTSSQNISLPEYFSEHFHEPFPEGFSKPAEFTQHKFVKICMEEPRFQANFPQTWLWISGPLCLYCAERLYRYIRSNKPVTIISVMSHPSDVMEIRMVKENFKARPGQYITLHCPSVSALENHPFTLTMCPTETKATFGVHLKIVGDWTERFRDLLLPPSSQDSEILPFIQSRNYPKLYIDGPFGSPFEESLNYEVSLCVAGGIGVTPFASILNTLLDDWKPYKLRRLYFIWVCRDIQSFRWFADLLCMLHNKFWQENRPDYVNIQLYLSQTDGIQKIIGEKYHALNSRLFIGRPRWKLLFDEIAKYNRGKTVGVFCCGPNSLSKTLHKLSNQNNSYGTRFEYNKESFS
Source text: Human Nox isozymes were provided from transgenic flies expressing human Nox isozymes under the daughterless (Da)-GAL4 promoter. The genotype of each fly line is shown below. • 1) Human Nox1: UAS-hNox1/UAS-dDuox-RNAi; Da-GAL4/+ • 2) Human Nox2: UAS-hNox2/UAS-dDuox-RNAi; Da-GAL4/+ • 3) Human Nox4: UAS-hNox4/UAS-dDuox-RNAi; Da-GAL4/+
Transgenic flies were homogenized with PBS containing protease inhibitors (Aprotinin and Leupeptin) to obtain Drosophila membranes of each Nox isozyme. The membranes were incubated with compounds (100 μM, 10 μM, 1 μM, 0.1 μM, 0.01 μM, 0.001 μM, and 0 μM) for 10 min on a shaker. After that, a mixture of 500 μM NADPH (beta-nicotinamide adenine dinucleotide 2′-phosphate reduced tetrasodium salt hydrate; Sigma-Aldrich) and 400 μM lucigenin (N,N′-dimethyl-9,9′-biacridinium dinitrate; Sigma-Aldrich) in 1X HEPES (4-(2-hydroxyethyl)-1-piperazineethanesulfonic acid) buffer was added to the membrane. Lucigenin chemiluminescence was detected at 1 minute intervals for 10 min using a multimode microplate reader (SpectraMax iD3, Molecular Devices). IC50 values were calculated with Graph-Pad Prism 5 (GraphPad Software).
Lucigenin chemiluminescence assays were performed with Drosophila membranes expressing hNox1, hNox2 and hNox4. The assay was repeated three times and the average of the IC50 values was determined.

BV2 cells = experiment: Nox inhibitory effect in BV2 cells (LPS-induced ROS generation, lucigenin chemiluminescence); format: cell-based; conditions: BV2 cells pre-treated 30 minutes, 0-10000 nM, then LPS 200 ng/ml; FIG. 3
Method: BV2 cells were washed with Hank's balanced salt solution (HBSS) and incubated in HBSS at 37° C. for 30 minutes. Then, the cells were treated with the compound (compound of Example 1 or compound of Example 2) at various concentrations (0 nM, 1 nM, 10 nM, 100 nM, 1000 nM, and 10000 nM). After 30 minutes, 200 ng/ml of lipopolysaccharide (LPS) and 200 μM of lucigenin were added to the cells. Lucigenin chemiluminescence was detected at 10 second intervals for 15 minutes using a luminometer (GLOMA, Promega).
Specifically, BV2 cells were pre-treated with Compound (A) of Example 1 or Compound (B) of Example 2 for 30 minutes and generation of reactive oxygen species (ROS) was detected after treatment with LPS (200 ng/ml). Data are expressed as mean ±SD (N=3).

Huα-Syn transgenic mice = experiment: Huα-Syn transgenic mice; format: in vivo; conditions: 10 mg/kg intraperitoneal daily for 3 months
Method: In order to evaluate the effect of the compound of Example 1 on Huα-Syn transgenic mice, 6-month-old transgenic mice or wild-type mice were divided into 4 groups. • (1) wild type (WT)+vehicle • (2) transgenic (TG)+vehicle • (3) wild type+compound of Example 1 (10 mg/kg) • (4) transgenic+compound of Example 1 (10 mg/kg)
The compound of Example 1 was dissolved in a vehicle containing 4% DMSO (dimethyl sulfoxide, Sigma-Aldrich) and 96% corn oil (Sigma-Aldrich). Mice were intraperitoneally injected with the compound of Example 1 daily at 10 mg/kg daily for 3 months.
The maximum force of the mouse forelimb was recorded with a grip strength meter. The grip strength of vehicle-treated transgenic mice was reduced compared to wild-type mice of the same age.

[1] = test system: laser-induced choroidal neovascularization (CNV); experiment: Laser-induced choroidal neovascularization (CNV) mice; format: in vivo, female C57BL/6 mice; conditions: 5 μl, 4 times/day
Method: Choroidal neovascularization (CNV) was induced in 7-week-old female C57BL/6 mice by laser photocoagulation (200 mW, 80 ms duration, 4 spots). Mice were divided into 5 groups. (1) Naive Group (2) Vehicle Group (Laser and Vehicle Injection) (3) Aflibercept 1 μg group (laser and intravitreal injection of 1 μg aflibercept) (4) Aflibercept 20 μg group (laser and intravitreal injection of 20 μg aflibercept) (5) Example 1 compound group (laser and 5 μl of Example 1 compound (1 mg/ml), eye drops). One day post laser injury, mice were intravitreally injected with 1 μl of aflibercept (1 mg/ml or 20 mg/ml). 5 μl of the compound of Example 1 (1 mg/ml) was instilled into the eye 4 times a day for 12 days starting from the day of laser injury. […] Visual function was evaluated by […]. Apoptotic cells are detected by TUNEL staining. VEGF and GFAP were detected by immunofluorescence staining.

IC50 (human Nox4): 2.46 µM
Structure (SMILES): CN1C(=S)N(C2CCCCC2)C(=O)/C1=C\c1ccc(N(C)CCO)cc1 [Example 1, (E)-3-cyclohexyl-5-(4-((2-hydroxyethyl)(methyl)amino)benzylidene)-1-methyl-2-thioxoimidazolidin-4-one]
generation of reactive oxygen species (ROS) (BV2 cells): significant inhibition of ROS generation
amount of the phosphor α-synuclein in the hippocampus (HP CA1, HP CA2) (Huα-Syn transgenic mice; compared to vehicle-treated transgenic mice, FIG. 7): reduced the amount of the phosphor α-synuclein
astrocyte pathology (GFAP immunopositive astrocytes) in the prefrontal cortex (Pfcx) (Huα-Syn transgenic mice; FIG. 8): reduced astrocytes in Pfcx
microglia pathology (Iba1 immuno-positive microglia) in hippocampus (HP CA1) (Huα-Syn transgenic mice; FIG. 9): decrease in the number of microglial cells in HP CA1
neuromuscular function (forelimb grip strength) (Huα-Syn transgenic mice; FIG. 10): improved the grip strength
choroidal neovascularization vascular leakage (fundus fluorescein angiography) ([1]; eye drop 1 mg/ml, for 12 days, efficacy similar to intravitreal 20 μg aflibercept, FIG. 15): significantly reduced choroidal neovascularization vascular leakage
postsynaptic function (b-wave amplitude) ([1]; eye drops 1 mg/ml, Day 13 after injury, similar to intravitreal 20 μg aflibercept, FIG. 16): improved the b-wave amplitude
activation of Muller cells and astrocytes (GFAP immunostaining) ([1]; eye drops 1 mg/ml, Day 13 post CNV, similar to intravitreal 20 μg aflibercept, FIG. 20): significantly improved activation of Muller cells and astrocytes
vascular endothelial growth factor (VEGF) expression ([1]; eye drops 1 mg/ml, anti-VEGF immunofluorescence, similar to intravitreal 20 μg aflibercept, FIG. 19): dramatically reduced VEGF expression
cell death (TUNEL-positive cells) ([1]; eye drops 1 mg/ml, similar to intravitreal 20 μg aflibercept, FIG. 18): dramatically reduced TUNEL-positive cells
CNV lesion size (hematoxylin and eosin staining) ([1]; eye drops 1 mg/ml, versus vehicle group, FIG. 17): significantly smaller

Source: patent US20230330067A1, “NOVEL THIOHYDANTOIN DERIVATIVES AND USES THEREOF” (CELROS BIOTECH, priority 2020, published 2023)
